Among the data in ChEMBL document CHEMBL4376810, “Bioactive Secondary Metabolites from Bacillus subtilis: A Comprehensive Review” (2019) are MIC values, retold here.

In brackets after ≈: the same amount, converted by molar mass. Non-standard residues stand in square brackets, D forms with d. Residues, ends and D or L forms follow the SMILES beside them. *: point of attachment. Tridecanoyl(3R-OH,11-Me) = CCC(C)CCCCCCC[C@@H](O)CC(=O)*; X1 = CCC(C)CC(C)CCCCC[C@@H](O)CC(=O)*

Experiment [1] deals with Staphylococcus aureus. Nature of the experiment: Antibacterial activity against Staphylococcus aureus. The format is functional.
For experiment [2], the system named is Staphylococcus aureus. Nature of the experiment: Antibacterial activity against methicillin-resistant Staphylococcus aureus incubated for 24 hrs by broth microdilution method. The format is functional. (In general: Dilution methods test growth across graded concentrations, often in twofold steps.)
Experiment [3] relates to Bacillus pumilus. Nature of the experiment: Antibacterial activity against Bacillus pumilus incubated for 24 hrs by broth microdilution method. The format is functional.
Experiment [4] concerns Micrococcus luteus. Nature of the experiment: Antibacterial activity against Micrococcus luteus incubated for 24 hrs by broth microdilution method. The format is functional.
In experiment [5] the test system is Staphylococcus aureus. In words: Antibacterial activity against methicillin-resistant Staphylococcus aureus. The format is functional.
Experiment [6] has as its system Staphylococcus epidermidis. In words: Antibacterial activity against Staphylococcus epidermidis by broth microdilution method. The format is functional.
The subject of experiment [7] is Staphylococcus aureus. Nature of the experiment: Antibacterial activity against oxacillin-resistant Staphylococcus aureus by broth microdilution method. The format is functional.
Experiment [8] concerns Streptococcus pneumoniae. In words: Antibacterial activity against Streptococcus pneumoniae by broth microdilution method. The format is functional.
The subject of experiment [9] is Salmonella typhimurium. In words: Antibacterial activity against Salmonella typhimurium incubated for 18 hrs by agar dilution assay. The format is functional, Salmonella enterica subsp. enterica serovar Typhimurium. The conditions noted are these: Salmonella enterica.
Experiment [10] has as its system Staphylococcus aureus. Nature of the experiment: Antibacterial activity against methicillin-resistant Staphylococcus aureus incubated for 18 hrs by agar dilution assay. The format is functional.
Experiment [11] concerns Morganella morganii. In words: Antibacterial activity against streptomycin-resistant Morganella morganii incubated for 18 hrs by agar dilution assay. The format is functional.
The subject of experiment [12] is Colletotrichum acutatum. In words: Antifungal activity against Colletotrichum acutatum assessed as inhibition of fungal growth incubated for 48 hrs by standard broth dilution assay. The format is functional.
Experiment [13] relates to Rhizoctonia solani. In words: Antifungal activity against Rhizoctonia solani assessed as inhibition of fungal growth incubated for 48 hrs by standard broth dilution assay. The format is functional.
Experiment [14] concerns Botrytis cinerea. In words: Antifungal activity against Botrytis cinerea assessed as inhibition of fungal growth incubated for 48 hrs by standard broth dilution assay. The format is functional.

For orientation: MIC means the lowest concentration that inhibits growth of the organism. In [1], `CC(C)C[C@H](NC(=O)[C@@H](O)[C@@H](O)[C@@H](N)CC(N)=O)[C@@H]1Cc2cccc(O)c2C(=O)O1` had an MIC of less than 1 µg/mL.

For `CC1=CC2C(OC3OC(C)C(O)C(O)C3O)CCCC2C2C(=O)OC(=O)/C(C)=C3/CC(O)C/C3=C/2C1/C=C/C=C/C=C(\C)CC(C)CC(O)C(C)C(=O)O` (stereo not drawn), the MIC in experiment [2], in [3] and in experiment [4] was less than 7 µg/mL in each case.

In turn, `CCCCCCCCCCCCC(=O)N[C@@H]1C(=O)N[C@H](CCC(N)=O)C(=O)N[C@@H](CC(=O)O)C(=O)NCC(=O)N[C@@H](CC(N)=O)C(=O)N[C@@H](CC(=O)O)C(=O)NCC(=O)N[C@@H](Cc2ccc(O)cc2)C(=O)N[C@@H](C(C)C)C(=O)OC1C` (stereo partly drawn) showed an MIC in [5] of 20 µg/mL (≈ 17.4 µM).

In the case of `CC(C)C[C@H](NC(=O)[C@H]1OCN[C@@H](CC(N)=O)[C@@H]1O)[C@@H]1Cc2cccc(O)c2C(=O)O1`, the MIC in experiment [6], in experiment [7] and in experiment [8] was 0.5 to 2 µg/mL (≈ 1.15 to 4.59 µM) throughout.

With `C=C/C=C(\C)CCC1CCC/C=C\C=C(\C)C(OP(=O)(O)O)CCC\C=C/C=C\C=C\C=C\C(O)C(C)C(=C)CC(=O)O1` (stereo not drawn), the MIC in [9], in [10] and in experiment [11] was 2 to 32 µg/mL (≈ 3.25 to 52.1 µM) each time.

In the case of `C=C/C=C(\C)CCC1CCC/C=C\C=C(\C)C(OP(=O)(O)O)CCC\C=C/C=C\C=C\C=C\CC(C)C(=C)CC(=O)O1` (stereo not drawn), the MIC in [9], in experiment [10] and in experiment [11] was 2 to 32 µg/mL (≈ 3.34 to 53.4 µM) in each case.

In the case of `CCCCCCCCCCCCCC(=O)N[C@@H]1C(=O)N[C@H](CCC(N)=O)C(=O)N[C@@H](CC(=O)O)C(=O)NCC(=O)N[C@@H](CC(N)=O)C(=O)N[C@@H](CC(=O)O)C(=O)NCC(=O)N[C@@H](Cc2ccc(O)cc2)C(=O)N[C@@H](C(C)C)C(=O)OC1C` (stereo partly drawn), it took 20 µg/mL (≈ 17.2 µM) to inhibit growth in [5] (MIC).

With `CC1=CC2C(OC3OC(C)C(O)C(=O)C3O)CCCC2C2C(=O)OC(=O)/C(C)=C3/CC(O)C/C3=C/2C1/C=C/C=C/C=C(\C)CC(C)CC(O)C(C)C(=O)O` (stereo not drawn), the MIC in [2], in experiment [3] and in experiment [4] was less than 7 µg/mL in each case.

`CCCCCCCCCCCC(=O)N[C@@H]1C(=O)N[C@H](CCC(N)=O)C(=O)N[C@@H](CC(=O)O)C(=O)NCC(=O)N[C@@H](CC(N)=O)C(=O)N[C@@H](CC(=O)O)C(=O)NCC(=O)N[C@@H](Cc2ccc(O)cc2)C(=O)N[C@@H](C(C)C)C(=O)OC1C` (stereo partly drawn) yielded an MIC in [5] of 20 µg/mL (≈ 17.7 µM).

With `CC1=CC2C(OC3OC(C)C(O)C(=O)C3O)CCCC2C2C(=O)OC(=O)/C=C3/CC(O)C/C3=C/2C1/C=C/C=C/C=C(\C)CC(C)CC(O)C(C)C(=O)O` (stereo not drawn), the MIC in [2], in [3] and in experiment [4] was less than 7 µg/mL in each case.

Turning to `CCC(C)CC(C)CCCCC[C@@H](O)CC(=O)N[C@@H](CCC(=O)O)C(=O)N[C@@H](CC(C)C)C(=O)N[C@@H](CC(C)C)C(=O)N[C@@H](C(=O)N[C@@H](CC(=O)O)C(=O)N[C@@H](CC(C)C)C(=O)N[C@@H](CC(C)C)C(=O)O)C(C)C` (stereo partly drawn) (X1-ELL[dV]DLL-OH), the MIC in [12], in experiment [13] and in experiment [14] was 4 to 8 µg/mL (≈ 3.79 to 7.59 µM) each time.

In the case of `CCC(C)CCCCCCC[C@@H](O)CC(=O)N[C@@H](CCC(=O)O)C(=O)N[C@@H](CC(C)C)C(=O)N[C@@H](CC(C)C)C(=O)N[C@@H](C(=O)N[C@@H](CC(=O)O)C(=O)N[C@@H](CC(C)C)C(=O)N[C@@H](CC(C)C)C(=O)O)C(C)C` (stereo partly drawn) ({Tridecanoyl(3R-OH,11-Me)}-ELL[dV]DLL-OH), the MIC in [12], in experiment [13] and in [14] was 4 to 8 µg/mL (≈ 3.84 to 7.69 µM) throughout.
